Data published in patent US6642254B2, “Heterocyclic compounds and their therapeutic use” (Darwin Discovery, Ltd., priority 1998, dated 2003).
≈ marks a conversion by molar mass, not a printed value. Like-named read-outs stand apart in the source and are kept apart here.

Columns and labels:
[1] = Solubility in water at pH 7; assay type: physicochemical
Experimental: The solubility of the compound of Example 8, in water at pH 7, was 0.2 mg/ml. The solubility of the corresponding free base, under the same conditions, was 0.002 mg/ml.

[2] = Pharmacokinetic profile in cannulated rats (oral dosing); assay type: in vivo; conditions: rat, oral dose 3 mg/kg, plasma
Experimental: The pharmacokinetic profile of the compounds of the invention is determined in rats cannulated in the right carotid artery for blood collection. For iv dosing, the compound is prepared in a suitable formulation, for example 10% v/v DMSO, 50% v/v PEG 400 in water, and dosing is carried out by cannulation of the left jugular vein. Samples are collected at 5 min, 0.5, 1, 2, 4, 6 and 8 hours post-dosing. For oral dosing, the compound is prepared in a suitable formulation such as 0.4% w/v methylcellulose in water Samples are collected at 0.5, 1, 2, 4, 6 and 8 hours post-dosing. In some cases, samples are also collected at 12 hours post-dosing. Plasma is obtained by centrifugation of the each blood sample and drug concentration is then determined using standard methods, such as liquid chromatography-mass spectrometry following protein precipitation.
Results are tabulated below, and are also shown in the accompanying drawing. The drawing is a graph of PK data following oral dosing in the rat; PC (plasma concentration; ng/ml) is plotted against t (time; hours). ▪ represents the compound of Example 8, and · the free base. The superiority of the novel compound is evident.

| solubility [1] [µg/mL] | AUC0-last (po) [2] [ng·h/mL] | Cmax (po) [2] [ng/mL] | t1/2 (po) [2] [h] | solubility ([1]; aqueous buffer, read-out: solubility) [µg/mL] | AUC(0-t) ([2]; read-out: AUC0-last (po)) [ng·h/mL] | half-life ([2]; read-out: t1/2 (po) (converted)) [h] | SMILES |
| --- | --- | --- | --- | --- | --- | --- | --- |
| 200 (≈ 463 µM) | 30169 | 3054 | 20 |  |  |  | COc1ccc(C(=O)Nc2c(Cl)c[n+]([O-])cc2Cl)c2ccc(C(F)(F)F)nc12 [Example 8, 8-Methoxy-2-trifluoromethylquinoline-5-carboxylic Acid (3,5-dichloro-1-oxypyridin-4-yl)amide] |
|  |  | 1008 |  | 2 (≈ 4.81 µM) | 6860 | 4.5 | COc1ccc(C(=O)Nc2c(Cl)cncc2Cl)c2ccc(C(F)(F)F)nc12 [Free base, 8-Methoxy-2-trifluoromethylquinoline-5-carboxylic acid (3,5-dichloropyridin-4-yl)amide] |
